# In patent US20160137746A1, “METHODS FOR TREATING HIGH CARDIOVASCULAR RISK PATIENTS WITH HYPERCHOLESTEROLEMIA” (Sanofi Biotechnology, priority 2014, published 2016):
# Assays:
# [1] = system: high cardiovascular risk patients with hypercholesterolemia; assay: ODYSSEY COMBO II: lipid efficacy of alirocumab vs ezetimibe, add-on to maximally tolerated statin; type: in vivo, human; conditions: for Calculated LDL-C percent change from baseline, LS mean (SE): ITT population, MMRM, alirocumab 75 Q2W/Up150 Q2W, ezetimibe 10
# From the text: Each of the COMBO studies was randomized, double-blinded, and placebo-controlled.
# The primary efficacy endpoint for each study was the difference between treatment arms in the percent change in LDL-C from baseline to Week 24.
# Apo, apolipoprotein; HDL-C, high-density lipoprotein cholesterol; ITT, intent-to-treat; LDL-C, low-density lipoprotein cholesterol; Lp(a), lipoprotein (a); TG, triglycerides.
# COMBO II was a Phase 3, randomized, double-blind, active-controlled, parallel-group, multinational 104-week study. The study enrolled high-risk patients with uncontrolled hypercholesterolemia on stable, maximally tolerated daily statin therapy. Unlike COMBO I, with a placebo arm, COMBO II incorporated an active-treatment arm (ezetimibe) with double-dummy design (FIG. 1B) and patients were not allowed to receive any other lipid lowering therapies besides statin and their randomized treatment.
# After randomization, patients entered a double-blind, double-dummy treatment period of 104 weeks.
# Primary analyses of efficacy endpoints were conducted using an ITT approach (based on the ITT population defined above), including all lipid data, regardless of whether the patient was continuing therapy or not. This corresponds to ITT estimands, defined for primary and key secondary endpoints. In addition, analyses were also conducted using an on-treatment approach (based on the mITT population defined above), including lipid data collected during the efficacy treatment period. This corresponds to on-treatment estimands of key secondary endpoints.
# With regards to the primary efficacy analysis (ITT approach), the percent change in calculated LDL-C from baseline to Week 24 was analyzed using a mixed-effect model with repeated measures (MMRM) approach.
# [2] = system: high cardiovascular risk patients with hypercholesterolemia; assay: ODYSSEY COMBO II: safety (TEAEs, adjudicated CV events, laboratory parameters, low LDL-C)
# Procedure: (§1) Safety assessments during both studies were as follows. Safety was assessed through adverse event (AE) reporting (including adjudicated cardiovascular events), laboratory analyses, and vital signs measurement. Since the LDL-C-lowering effects of PCSK9 inhibition on top of a statin are unknown, a number of AEs were defined as being of special interest and were monitored, including alanine aminotransferase abnormalities, allergic events, hemolytic anemia, pregnancy, overdose with study drug, neurologic events, ophthalmic events, and local injection site reactions.
# (§2) Safety Analyses were as follows. AEs (including adjudicated cardiovascular events), laboratory parameters, and vital signs were reported descriptively, based on the safety population (all randomized patients who received at least 1 dose or partial dose of study treatment). The safety analysis focused on the treatment-emergent AE period defined as the time from the first double-blind dose to the last double-blind dose of the investigational product +70 days (10 weeks).
# (§3) The safety population included all randomized patients who received at least one dose or part of a dose of the double-blind IMP.
# (§4) Safety analyses were descriptive, performed on the safety population according to treatment actually received. For analysis of TEAE and PCSA, the safety analysis focused on the TEAE period defined as the time from the first dose of double-blind IMP administration (capsule or injection, whichever comes first) up to 70 days after the last double-blind injection.
# [3] = system: high cardiovascular risk patients with hypercholesterolemia; conditions: human, in vivo, 52 weeks
# Procedure: as §1, §2, §3, §4
# [4] = safety population at 52 weeks, all patients, number (%) of patients
# [5] = treatment period, safety population
structure (smiles),measurement,setting,value
"O=C1[C@H](CC[C@H](O)c2ccc(F)cc2)[C@@H](c2ccc(O)cc2)N1c1ccc(F)cc1 [Ezetimibe, ezetimibe, reference compound]","Achieved LDL-C, median","[1]; 24 weeks, FIG. 7",70 mg/dL
same,"Calculated LDL-C, LS mean (SE) percent change from baseline","[1]; ITT, Week 24",−20.7 (1.9) %
same,"Fasting TGs, LS mean percent change from baseline","[1]; ITT, Week 24",−12.8%
same,"Calculated LDL-C, LS mean (SE) percent change from baseline","[1]; ITT, Week 24, listed as ezetimibe",−20.7%
same,"Calculated LDL-C percent change from baseline, LS mean (SE)",[1]; Week 4,−25.3 (1.6) %
same,"Calculated LDL-C percent change from baseline, LS mean (SE)",[1]; Week 8,−24.3 (1.7) %
same,"Calculated LDL-C percent change from baseline, LS mean (SE)",[1]; Week 12,−21.8 (1.8) %
same,"Calculated LDL-C percent change from baseline, LS mean (SE)",[1]; Week 16,−23.0 (1.8) %
same,Fasting TGs reduced from baseline,[1]; Week 24,13.3%
same,Mean achieved LDL-C,[1]; Week 24,82.5 (2.0) mg/dL
same,"Calculated LDL-C percent change from baseline, LS mean (SE)",[1]; Week 24,−20.7 (1.9) %
same,"Apo-B - Percent change from baseline to Week 24, LS mean vs. baseline","[1]; Week 24, On-treatment analysis",−19.1 (1.4)
same,"Calculated LDL-C - Percent change from baseline to Week 24, LS mean vs. baseline","[1]; Week 24, On-treatment analysis",−21.8 (1.8) %
same,"Non-HDL-C - Percent change from baseline to Week 24, LS mean vs. baseline","[1]; Week 24, On-treatment analysis",−20.2 (1.6)
same,HDL-C percent change from baseline to week 24,"[1]; Week 24, on-treatment analysis",0.8 (1.1)
same,Lipoprotein(a) percent change from baseline to week 24,"[1]; Week 24, on-treatment analysis",−5.6 (1.9)
same,Total cholesterol percent change from baseline to week 24,"[1]; Week 24, on-treatment analysis",−15.2 (1.2)
same,Triglycerides (fasted) percent change from baseline to week 24,"[1]; Week 24, on-treatment analysis",−13.3 (2.0)
same,"Calculated LDL-C percent change from baseline, LS mean (SE)",[1]; Week 36,−19.3 (2.0) %
same,"Calculated LDL-C percent change from baseline, LS mean (SE)",[1]; Week 52,−18.3 (2.1) %
same,Adjudicated cardiovascular events,[2]; in vivo,3.7%
same,SOC gastrointestinal disorders,[2]; in vivo,13.7%
same,SOC infections and infestations,[2]; in vivo,25.3%
same,SOC musculoskeletal and connective tissue disorders,[2]; in vivo,17.0%
same,Treatment-emergent local injection site reactions,[2]; in vivo,0.8%
same,Patients who experienced at least one TEAE,[2]; mean 58 weeks' follow-up,67.2%
same,Serious adverse event,[2]; mean 58 weeks' follow-up,17.8%
same,TEAE leading to death,[2]; mean 58 weeks' follow-up,4 (1.7%) n (%)
same,TEAEs leading to treatment discontinuation,[2]; mean 58 weeks' follow-up,5.4%
same,Laboratory parameters: Blood glucose increased,[2]; [4],3 (1.2)
same,Laboratory parameters: Hemoglobin decreased,[2]; [4],2 (0.8)
same,Patients experiencing any TEAE,[2]; [4],162 (67.2)
same,TEAE preferred term: Accidental overdose,[2]; [4],16 (6.6)
same,TEAE preferred term: Angina pectoris,[2]; [4],11 (4.6)
same,TEAE preferred term: Arthralgia,[2]; [4],9 (3.7)
same,TEAE preferred term: Dizziness,[2]; [4],13 (5.4)
same,TEAE preferred term: Headache,[2]; [4],10 (4.1)
same,TEAE preferred term: Hypertension,[2]; [4],10 (4.1)
same,TEAE preferred term: Myalgia,[2]; [4],12 (5.0)
same,TEAE preferred term: Nasopharyngitis,[2]; [4],9 (3.7)
same,TEAE preferred term: Upper respiratory tract infection,[2]; [4],14 (5.8)
same,TEAE system organ class: Blood and lymphatic system disorders,[2]; [4],8 (3.3)
same,TEAE system organ class: Cardiac disorders,[2]; [4],29 (12.0)
same,TEAE system organ class: Eye disorders,[2]; [4],9 (3.7)
same,TEAE system organ class: Gastrointestinal disorders,[2]; [4],33 (13.7)
same,TEAE system organ class: General disorders and administration site conditions,[2]; [4],26 (10.8)
same,TEAE system organ class: Infections and infestations,[2]; [4],61 (25.3)
same,"TEAE system organ class: Injury, poisoning, and procedural complications",[2]; [4],33 (13.7)
same,TEAE system organ class: Investigations,[2]; [4],21 (8.7)
same,TEAE system organ class: Metabolism and nutrition disorders,[2]; [4],18 (7.5)
same,TEAE system organ class: Musculoskeletal and connective tissue disorders,[2]; [4],41 (17.0)
same,"TEAE system organ class: Neoplasms, benign, malignant and unspecified (including cysts and polyps)",[2]; [4],7 (2.9)
same,TEAE system organ class: Nervous system disorders,[2]; [4],40 (16.6)
same,TEAE system organ class: Psychiatric disorders,[2]; [4],12 (5.0)
same,TEAE system organ class: Renal and urinary disorders,[2]; [4],13 (5.4)
same,TEAE system organ class: Reproductive system and breast disorders,[2]; [4],2 (0.8)
same,"TEAE system organ class: Respiratory, thoracic, and mediastinal disorders",[2]; [4],22 (9.1)
same,TEAE system organ class: Skin and subcutaneous tissue disorders,[2]; [4],15 (6.2)
same,TEAE system organ class: Vascular disorders,[2]; [4],20 (8.3)
same,Patients with 2 consecutive calculated LDL-C value <15 mg/dL,[2]; [5],0/230
same,Patients with 2 consecutive calculated LDL-C value <25 mg/dL,[2]; [5],0/230
same,Patients with 2 consecutive calculated LDL-C value <25 mg/dL,"[2]; treatment period, safety population, listed as ezetimibe",none
same,TEAE preferred term: Influenza,[3],7 (2.9)
